# Measured values: PMC8286840, “Identifying SARS-CoV-2 antiviral compounds by screening for small molecule inhibitors of Nsp3 papain-like protease” (Biochemical Journal, 2021)
# Where a name gives a salt, the structure may show the parent alone. Read-outs that look alike come from different tables or passages of the source.
# Legend:
# [1] = target: T1, SARS-CoV-2 PLpro (nsp3 1564–1878) (Severe acute respiratory syndrome coronavirus 2, UniProt P0DTD1); assay: biochemical; design: FRET-quenched peptide (Pro3) cleavage by PLpro, 10 min pre-incubation, slope over 20 min, normalised to no-compound control; details: low concentration screen, read-out: % of control remaining
# [2] = target: T1, SARS-CoV-2 PLpro (nsp3 1564–1878); assay: biochemical; design: FRET-quenched peptide (Pro3) cleavage by PLpro, 10 min pre-incubation, slope over 20 min, normalised to no-compound control; details: high concentration screen, read-out: % of control remaining
compound,measurement,setting,value
CC[C@H](NC(=O)c1c(O)c(-c2ccccc2)nc2ccccc12)c1ccccc1 [Talnetant],remaining activity at 1.25 µM,[1]; Well no.=5814,97.3%
same,remaining activity at 1.25 µM,[1]; Well no.=8479,104%
same,remaining activity at 3.75 µM,[2]; Well no.=5814,97.8%
same,remaining activity at 3.75 µM,[2]; Well no.=8479,100%
"O=C1NC(=O)c2c1c1c3ccccc3n3c1c1c2c2ccccc2n1C1CCC3O1 [9,10,11,12-Tetrahydro-9,12-epoxy-1H-diindolo[1,2,3-fg:3',2',1'-kl]pyrrolo[3,4-i][1,6]benzodiazocine-1,3(2H)-dione]",remaining activity at 1.25 µM,[1]; Well no.=2578,99%
same,remaining activity at 3.75 µM,[2]; Well no.=2578,101%
CCCCCOc1ccccc1C(O)CC#CCCCC(=O)OC (stereo not shown) [CAY10514],remaining activity at 1.25 µM,[1]; Well no.=4293,100%
same,remaining activity at 3.75 µM,[2]; Well no.=4293,98.7%
N[C@@H](CCl)C(=O)O [beta-Chloro-L-alanine hydrochloride],remaining activity at 1.25 µM,[1]; Well no.=142,103%
same,remaining activity at 3.75 µM,[2]; Well no.=142,105%
Oc1ccc(C2CNCCc3c2cc(O)c(O)c3Cl)cc1 (stereo not shown) [Fenoldopam (mesylate)],remaining activity at 1.25 µM,[1]; Well no.=6267,106%
same,remaining activity at 3.75 µM,[2]; Well no.=6267,103%
Cc1nc2ccccn2c(=O)c1CCN1CCC(C(=O)c2ccc(F)cc2)CC1 [Pirenperone],remaining activity at 1.25 µM,[1]; Well no.=1359,101%
same,remaining activity at 3.75 µM,[2]; Well no.=1359,102%
O=C(O)Cc1c[nH]c2ccccc12 [Indole-3-acetic acid],remaining activity at 1.25 µM,[1]; Well no.=3667,101%
same,remaining activity at 3.75 µM,[2]; Well no.=3667,104%
OCCN(CCO)c1nc(N2CCCCC2)c2nc(N(CCO)CCO)nc(N3CCCCC3)c2n1 [Dipyridamole],remaining activity at 1.25 µM,[1]; Well no.=682,103%
same,remaining activity at 1.25 µM,[1]; Well no.=1863,95.1%
same,remaining activity at 3.75 µM,[2]; Well no.=682,100%
same,remaining activity at 3.75 µM,[2]; Well no.=1863,94.7%
CC(=O)OC/C=C(C)/C=C/C=C(C)/C=C/C1=C(C)CCCC1(C)C [Vitamin A acetate],remaining activity at 1.25 µM,[1]; Well no.=1700,101%
same,remaining activity at 3.75 µM,[2]; Well no.=1700,97.8%
CCCCC/C=C\C[C@@H]1O[C@H]1C(O)/C=C\C/C=C\CCCC(=O)O (stereo partly shown) [Hepoxilin B3],remaining activity at 1.25 µM,[1]; Well no.=4341,97.9%
same,remaining activity at 3.75 µM,[2]; Well no.=4341,96.6%
Cn1cc(C2=C(c3ccc(Cl)cc3Cl)C(=O)NC2=O)c2ccccc21 [SB-216763],remaining activity at 1.25 µM,[1]; Well no.=3035,87.5%
same,remaining activity at 3.75 µM,[2]; Well no.=3035,89.6%
CCc1ccc(N(CC(C)C)S(=O)(=O)c2ccc(OCC3CCOCC3)c(CO)c2)cc1 [GSK2981278],remaining activity at 1.25 µM,[1]; Well no.=8561,105%
same,remaining activity at 3.75 µM,[2]; Well no.=8561,101%
O=C(Nc1cc(C(=O)Nc2ccc(S(=O)(=O)O)cc2S(=O)(=O)O)cc(C(=O)Nc2ccc(S(=O)(=O)O)cc2S(=O)(=O)O)c1)Nc1cc(C(=O)Nc2ccc(S(=O)(=O)O)cc2S(=O)(=O)O)cc(C(=O)Nc2ccc(S(=O)(=O)O)cc2S(=O)(=O)O)c1 [NF449 octasodium salt],remaining activity at 1.25 µM,[1]; Well no.=1095,97.6%
same,remaining activity at 3.75 µM,[2]; Well no.=1095,98.3%
Oc1cccc(O)c1O [Pyrogallol],remaining activity at 1.25 µM,[1]; Well no.=6975,104%
same,remaining activity at 3.75 µM,[2]; Well no.=6975,105%
CCOC(=O)c1ccc(NC2CCCCC2)c(N)c1 [Ferrostatin-1],remaining activity at 1.25 µM,[1]; Well no.=6252,103%
same,remaining activity at 3.75 µM,[2]; Well no.=6252,98%
CC(C)C[C@H](NC(=O)[C@@H](O)[C@H](N)Cc1ccccc1)C(=O)O [Bestatin],remaining activity at 1.25 µM,[1]; Well no.=8068,98.5%
same,remaining activity at 3.75 µM,[2]; Well no.=8068,97.8%
OC[C@H]1O[C@@H](n2cnc3c(NC4CCCCC4)ncnc32)[C@H](O)[C@@H]1O [N6-Cyclohexyladenosine],remaining activity at 1.25 µM,[1]; Well no.=435,98.1%
same,remaining activity at 1.25 µM,[1]; Well no.=7053,96.4%
same,remaining activity at 1.25 µM,[1]; Well no.=7952,92%
same,remaining activity at 1.25 µM,[1]; Well no.=8083,106%
same,remaining activity at 3.75 µM,[2]; Well no.=435,100%
same,remaining activity at 3.75 µM,[2]; Well no.=7053,95.5%
same,remaining activity at 3.75 µM,[2]; Well no.=7952,92.4%
same,remaining activity at 3.75 µM,[2]; Well no.=8083,105%
Clc1ccc(C2(c3ccc(-c4cn[nH]c4)cc3)CCNCC2)cc1 [AT7867],remaining activity at 1.25 µM,[1]; Well no.=5295,95.9%
same,remaining activity at 3.75 µM,[2]; Well no.=5295,96.7%
Cn1cnc2c(ncn2[C@@H]2O[C@H](CO)[C@@H](O)[C@H]2O)c1=O [1-Methylinosine],remaining activity at 1.25 µM,[1]; Well no.=7167,103%
same,remaining activity at 1.25 µM,[1]; Well no.=7858,102%
same,remaining activity at 3.75 µM,[2]; Well no.=7167,101%
CC1(C)S[C@@H]2[C@H](NC(=O)[C@H](N)c3ccccc3)C(=O)N2[C@H]1C(=O)O [Ampicillin],remaining activity at 1.25 µM,[1]; Well no.=2123,97.8%
same,remaining activity at 3.75 µM,[2]; Well no.=2123,97.3%
Cc1cccc(N(C)C(=S)Oc2ccc3ccccc3c2)c1 [Tolnaftate],remaining activity at 1.25 µM,[1]; Well no.=4720,105%
same,remaining activity at 3.75 µM,[2]; Well no.=4720,106%
"CC(C)(C)C(=O)Oc1ccc(S(=O)(=O)Nc2ccccc2C(=O)NCC(=O)O)cc1 [sodium ({2-[({4-[(2,2-dimethylpropanoyl)oxy]phenyl}sulfonyl)amino]benzoyl}amino)acetate hydrate]",remaining activity at 1.25 µM,[1]; Well no.=5452,95.1%
same,remaining activity at 3.75 µM,[2]; Well no.=5452,101%
CCCCC[C@H](O)/C=C/[C@H]1OC(=O)C[C@H](O)[C@@H]1C/C=C\CCCC(=O)O [11-Dehydro-thromboxane B2],remaining activity at 1.25 µM,[1]; Well no.=4288,103%
same,remaining activity at 3.75 µM,[2]; Well no.=4288,99.7%
CCCCCCCC[C@H]1O[C@H]1CCCCCCCC(=O)O [Epoxy-oleic acid],remaining activity at 1.25 µM,[1]; Well no.=4569,96.6%
same,remaining activity at 3.75 µM,[2]; Well no.=4569,103%
CCCS(=O)(=O)Nc1ccc(F)c(C(=O)c2c[nH]c3ncc(Cl)cc23)c1F [PLX4720],remaining activity at 1.25 µM,[1]; Well no.=2795,97.5%
same,remaining activity at 3.75 µM,[2]; Well no.=2795,99.9%
CN(C)[C@@H]1C(O)=C(C(N)=O)C(=O)[C@@]2(O)C(O)=C3C(=O)c4c(O)ccc(Cl)c4[C@@H](O)[C@H]3C[C@@H]12 [Demeclocycline hydrochloride],remaining activity at 1.25 µM,[1]; Well no.=484,99.1%
same,remaining activity at 3.75 µM,[2]; Well no.=484,96.9%
Cc1ccc(O)c([C@H](CCN(C(C)C)C(C)C)c2ccccc2)c1 [Tolterodine tartrate (Detrol LA)],remaining activity at 1.25 µM,[1]; Well no.=4918,98%
same,remaining activity at 3.75 µM,[2]; Well no.=4918,94.6%
CC(=O)OCC(=O)[C@@]1(O)CC[C@H]2[C@@H]3CCC4=CC(=O)CC[C@]4(C)[C@H]3C(=O)C[C@@]21C [Cortisone (acetate)],remaining activity at 1.25 µM,[1]; Well no.=6321,106%
same,remaining activity at 3.75 µM,[2]; Well no.=6321,105%
Cc1cc(Nc2cc(N3CCN(C)CC3)nc(/C=C/c3ccccc3)n2)n[nH]1 [ENMD-2076],remaining activity at 1.25 µM,[1]; Well no.=5093,102%
same,remaining activity at 3.75 µM,[2]; Well no.=5093,105%
C[C@@]12N[C@@H](Cc3ccccc31)c1ccccc12 [(-)-MK-801 hydrogen maleate],remaining activity at 1.25 µM,[1]; Well no.=799,101%
same,remaining activity at 3.75 µM,[2]; Well no.=799,99.2%
CC1=CC(=O)CC(C)(C)C1(O)/C=C/C(C)=C\C(=O)O (racemic),remaining activity at 1.25 µM,[1]; Well no.=3152,101%
same,remaining activity at 3.75 µM,[2]; Well no.=3152,102%
